Reference: ChEMBL document CHEMBL5543127, “Design, Synthesis, and Biological Evaluation of 2-Phenoxyalkylhydrazide Benzoxazole Derivatives as Quorum Sensing Inhibitors with Strong Antibiofilm Effect” (J Med Chem, 2024)
In brackets after ≈: the same amount, converted by molar mass. Activity calls are given as the source filed them. No cut-off for these calls is given here.

Legend:
Pseudomonas aeruginosa [1] = assay: Inhibition of protease in logarithmic growth phase Pseudomonas aeruginosa PAO1 assessed as inhibition rate at 102.4 microg/ml measured after 32 hrs; details: dose 102.4 µg/ml
Staphylococcus aureus [2] = assay: Anti-microbial activity against methicillin-resistant Staphylococcus aureus ATCC43300 incubated for 20 hrs By CLSI based micro-dilution method; type: functional
Pseudomonas aeruginosa [3] = assay: Antibacterial activity against Pseudomonas aeruginosa PAO1 at logarithmic growth phase assessed as growth inhibition at 153.6 microg/ml measured upto 25 hrs by growth curve assay; type: functional, organism-based; details: dose 153.6 µg/ml
Escherichia coli = assay: Anti-microbial activity against penicillin-susceptible Escherichia coli ATCC25922 incubated for 20 hrs By CLSI based micro-dilution method; type: functional
Bacillus pumilus = assay: Anti-microbial activity against Bacillus pumilus CMCC63202 incubated for 20 hrs By CLSI based micro-dilution method; type: functional
Pseudomonas aeruginosa [4] = assay: Antibacterial activity against Pseudomonas aeruginosa 27853 at logarithmic growth phase assessed as growth inhibition at 153.6 microg/ml measured upto 25 hrs by growth curve assay; type: functional, organism-based; details: dose 153.6 µg/ml
Pseudomonas aeruginosa [5] = assay: Anti-microbial activity against Pseudomonas aeruginosa PAO1 incubated for 20 hrs By CLSI based micro-dilution method; type: functional
Bacillus subtilis = assay: Anti-microbial activity against Bacillus subtilis ATCC9372 incubated for 20 hrs By CLSI based micro-dilution method; type: functional
Staphylococcus aureus [6] = assay: Anti-microbial activity against erythromycin-susceptible Staphylococcus aureus ATCC25923 incubated for 20 hrs By CLSI based micro-dilution method; type: functional
Pseudomonas aeruginosa [7] = assay: Anti-microbial activity against penicillin-susceptible Pseudomonas aeruginosa 27853 incubated for 20 hrs By CLSI based micro-dilution method; type: functional
[8] = Inhibition of quorum sensing system in Pseudomonas aeruginosa PAO1 at logarithmic growth period assessed as inhibition of pyocyanin production at 102.4 microg/ml incubated for 18 hrs by pyocyanin inhibition assay; details: dose 102.4 µg/ml
Pseudomonas aeruginosa [9] = assay: Induction of anti-bacterial effect in Pseudomonas aeruginosa PAO1 assessed as synergistic effect by measuring reduction in bacterial survival in presence of clarithromycin measured after 24 hrs incubation; type: functional, organism-based; details: dose 8-128 µg/ml
Pseudomonas aeruginosa [10] = assay: Induction of anti-bacterial effect in Pseudomonas aeruginosa PAO1 assessed as synergistic effect by measuring reduction in bacterial survival in presence of ciprofloxacin measured after 24 hrs incubation; type: functional, organism-based; details: dose 8-128 µg/ml
Pseudomonas aeruginosa [11] = assay: Antibiofilm activity against logarithmic growth phase Pseudomonas aeruginosa PAO1 assessed as inhibition of biofilm formation at 16 microg/ml incubated for 20 hrs by crystal violet staining based analysis; type: functional; details: dose 16.0 µg/ml
Pseudomonas aeruginosa [12] = assay: Antibiofilm activity against logarithmic growth phase Pseudomonas aeruginosa PAO1 assessed as inhibition of biofilm formation at 32 microg/ml incubated for 20 hrs by crystal violet staining based analysis; type: functional

SMILES | inhibition (Pseudomonas aeruginosa [1]) [%] | MIC (Staphylococcus aureus [2]) [µg/mL] | Activity (Pseudomonas aeruginosa [3]) | MIC (Escherichia coli) [µg/mL] | MIC (Bacillus pumilus) [µg/mL] | Activity (Pseudomonas aeruginosa [4]) | MIC (Pseudomonas aeruginosa [5]) [µg/mL] | MIC (Bacillus subtilis) [µg/mL] | MIC (Staphylococcus aureus [6]) [µg/mL] | MIC (Pseudomonas aeruginosa [7]) [µg/mL] | inhibition [8] | Activity (Pseudomonas aeruginosa [9]) | Activity (Pseudomonas aeruginosa [10]) | inhibition (Pseudomonas aeruginosa [11]) | inhibition at 32 µg/mL (Pseudomonas aeruginosa [12]) [%]
Cn1/c(=N/NC(=O)c2ccc(F)cc2)sc2ccccc21 | > 20 | > 512 | inactive | > 512 | > 512 | inactive | > 512 | > 512 | > 512 | > 512 |  |  |  |  | 
Clc1ccc(/C=N/Nc2nc3ccccc3o2)cc1 | 21.4 | 512 (≈ 1880 µM) | inactive | > 512 | > 512 | inactive | > 512 | 512 (≈ 1880 µM) | 64 (≈ 236 µM) | > 512 | inactive |  |  |  | 
O=C(CCCOc1ccc(F)cc1)NNc1nc2ccccc2o1 | 30 | 256 (≈ 777 µM) |  | > 512 | 256 (≈ 777 µM) |  | > 512 | 512 (≈ 1550 µM) | 256 (≈ 777 µM) | 128 (≈ 389 µM) | inactive |  |  |  | 
O=C(COc1cccc(F)c1)NNc1nc2ccccc2o1 | 10 | > 512 | inactive | > 512 | > 512 | inactive | 512 (≈ 1700 µM) | 512 (≈ 1700 µM) | 512 (≈ 1700 µM) | 512 (≈ 1700 µM) | inactive |  |  |  | 
Cn1/c(=N/NC(=O)c2ccccc2F)sc2ccccc21 | > 20 | > 512 | inactive | > 512 | > 512 | inactive | > 512 | > 512 | > 512 | > 512 |  |  |  |  | 
Cc1ccc(OCC(=O)NNc2nc3ccccc3o2)cc1 | 13.9 | 512 (≈ 1720 µM) | inactive | > 512 | > 512 | inactive | > 512 | 512 (≈ 1720 µM) | 512 (≈ 1720 µM) | 512 (≈ 1720 µM) | inactive |  |  |  | 
Clc1cccc(/C=N/Nc2nc3ccccc3o2)c1 |  | > 512 | inactive | > 512 | 512 (≈ 1880 µM) | inactive | > 512 | 512 (≈ 1880 µM) | 256 (≈ 942 µM) | > 512 | inactive |  |  |  | 
CCCCCCCC(=O)N/N=c1\sc2ccccc2n1C | > 20 | > 512 |  | > 512 | > 512 |  | > 512 | > 512 | > 512 | > 512 |  |  |  |  | 
O=C(CCCCOc1ccc(F)cc1)NNc1nc2ccccc2s1 |  | > 512 | inactive | > 512 | > 512 | inactive | > 512 | > 512 | > 512 | > 512 | Active |  |  |  | 
O=C(CCCOc1ccc(Cl)cc1)NNc1nc2ccccc2o1 | 30 | 256 (≈ 740 µM) |  | > 512 | 512 (≈ 1480 µM) |  | > 512 | 512 (≈ 1480 µM) | 256 (≈ 740 µM) | 512 (≈ 1480 µM) | inactive | Dose-Dependent Effect | Dose-Dependent Effect | Active | > 25.4
COc1ccc(/C=N/Nc2nc3ccccc3o2)cc1OC | 21.9 | 256 (≈ 861 µM) | inactive | > 512 | 256 (≈ 861 µM) | inactive | > 512 | 512 (≈ 1720 µM) | 128 (≈ 431 µM) | > 512 | 40.3% |  |  | Active | > 25.4
COc1cccc(/C=N/Nc2nc3ccccc3o2)c1 |  | > 512 | inactive | > 512 | 512 (≈ 1920 µM) | inactive | > 512 | 512 (≈ 1920 µM) | 128 (≈ 479 µM) | > 512 | inactive |  |  |  | 
CCCC(=O)N/N=c1\sc2ccccc2n1C |  | > 512 |  | > 512 | > 512 |  | > 512 | > 512 | 512 (≈ 2050 µM) | > 512 | Active |  |  |  | 
O=[N+]([O-])c1ccccc1/C=N/Nc1nc2ccccc2o1 |  | 256 (≈ 907 µM) |  | > 512 | 256 (≈ 907 µM) |  | 256 (≈ 907 µM) | 512 (≈ 1810 µM) | 128 (≈ 453 µM) | > 512 | inactive |  |  |  | 
CCCCCCCCCCCC(=O)N/N=c1\sc2ccccc2n1C | > 20 | > 512 | inactive | > 512 | > 512 | inactive | > 512 | > 512 | > 512 | > 512 |  |  |  |  | 
O=C(CCCCCOc1ccc(Cl)cc1)NNc1nc2ccccc2o1 |  | 256 (≈ 685 µM) |  | > 512 | 256 (≈ 685 µM) |  | > 512 | 512 (≈ 1370 µM) | 256 (≈ 685 µM) | 512 (≈ 1370 µM) | inactive |  |  |  | 
COc1ccccc1/C=N/Nc1nc2ccccc2o1 |  | > 512 | inactive | > 512 | > 512 | inactive | > 512 | 512 (≈ 1920 µM) | 256 (≈ 958 µM) | > 512 | inactive |  |  |  | 
Cn1/c(=N/NC(=O)c2cccc(Cl)c2)sc2ccccc21 | > 20 | > 512 | inactive | > 512 | > 512 | inactive | > 512 | > 512 | > 512 | > 512 | 40.1% |  |  | Active | > 25.4
O=C(CCCOc1cccc(F)c1)NNc1nc2ccccc2o1 | 30 | > 512 |  | > 512 | > 512 |  | > 512 | > 512 | > 512 | 512 (≈ 1550 µM) | inactive |  |  |  | 
